The values that follow come from US9266904B2, “6-bridged heteroaryldihydropyrimidines for the treatment and prophylaxis of hepatitis B virus infection” (priority 2013, dated 2016).

Read-outs that look alike come from different tables or passages of the source.

Data set [1] in a line: Cytotoxicity (CCK-8 cell viability) and selectivity index. It is filed as cell-based, human. The settings on record: human, HepDE19 cells; cytotoxicity, concentration resulting in death of 50% of host cells. An excerpt:
(§1) HepG2.2.15 and HepDE19 are stably-transfected cell lines containing the HBV genome. Both cell lines are derived from the hepatoblastoma cell line Hep G2 (American Type Culture Collection, ATCC® HB-8065™) by the published procedures described in references: M A Selles et al. Proc. Natl. Acad. Sci. USA 1987, 84, 1005-1009 and H Guo et al. Journal of Virology 2007, 81, 12472-12484, respectively. Both cell lines were maintained in Dulbecco's modified Eagle's medium (DMEM)-F12 medium supplemented with 10% fetal bovine serum, 100 U/mL penicillin, 100 μg/mL streptomycin, and 0.5 mg/mL of G418.
(§2) In a cell culture model, apparent antiviral activity of a compound can be the result of host cell death after exposure to the compound. To determine whether the anti-HBV effect of a test compound is due to cytotoxicity, HepDE19 cells were seeded into 96-well plates (5×10^3 cells per well) and treated with compounds as described above for EC50 determination. Five days after treatment, cell viability was measured by addition of 20 μL of CCK-8 reagent. Two hours after incubation at 37° C., the absorbance at wavelengths of 450 nm and 630 nm (OD450 and OD630) was recorded by a plate reader. The concentration results in the death of 50% of the host cells (CC50) of each compound was determined (See Table 5).

The test system of data set [2] is HepDE19 cells. The data set is described as above. It is filed as cell-based, human. To be noted: CC50 value/EC50 value.
Source text: as §1, §2

The test system of data set [3] is HBV replication in HepG2.2.15 cells. As to the kind of experiment: Anti-HBV activity in vitro in HepG2.2.15 cells (extracellular HBV DNA by qPCR). It is filed as cell-based. The settings on record: Hepatitis B virus. In outline:
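Constitutively HBV-producing HepG2.2.15 cells were seeded overnight at 37 °C, then treated with half-log serial dilutions of compound (0.5% DMSO final) for five days. Supernatant HBV DNA was extracted and quantified by qPCR; EC50 is the concentration inhibiting HBV replication by 50%.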
A general note: Quantitative PCR measures a nucleic acid by following its amplification.

[4] abbreviates: HepG2.2.15, Anti-HBV activity in HepG2.2.15 cells, read-out: EC50.

The CC50 is the concentration at which the toxic effect on the cells reaches its halfway point. The low end stands for greater toxicity to the cells, the high end for lower toxicity to the cells. Broadly, the EC50 is the midpoint of the concentration-response curve. With `COC(=O)C1=C(CN2C3COCC2C(F)(F)c2[nH]ncc23)NC(c2nccs2)=N[C@H]1c1ccc(F)cc1Cl` (stereo partly drawn) [Example 107, (R)-4-(2-Chloro-4-fluoro-phenyl)-6-(7,7-difluoro-10-oxa-4,5,12-triaza-tricyclo[6.3.1.0*2,6*]dodeca-2(6),3-dien-12-ylmethyl)-2-thiazol-2-yl-1,4-dihydro-pyrimidine-5-arboxylic acid methyl ester], it took 26 µM to reach half-maximal cytotoxicity in data set [1] (CC50 at 5 days). For the same molecule, the “Selectivity index (CC50/EC50)” value in data set [2] is given as 12495. In addition, in data set [3] (setting [4]), the EC50 turned out to be 2.1 nM.

Consider `COC(=O)C1=C(CN2C3CC(F)(F)C2C[C@H]3C(=O)O)NC(c2nccs2)=N[C@H]1c1ccc(F)cc1Cl` (stereo partly drawn) [Example 152, (5R)-7-[[(4R)-4-(2-chloro-4-fluoro-phenyl)-5-methoxycarbonyl-2-thiazol-2-yl-1,4-dihydropyrimidin-6-yl]methyl]-2,2-difluoro-7-azabicyclo[2.2.1]heptane-5-carboxylic acid], for which the CC50 at 5 days in data set [1] was greater than 100 µM. Further, the “Selectivity index (CC50/EC50)” value in data set [2] is greater than 5650. In addition, in data set [3] (setting [4]), the EC50 was found to be 17.7 nM.

Turning to `CCOC(=O)CC1(NS(C)(=O)=O)CC2COCC(C1)N2CC1=C(C(=O)OC)[C@H](c2ccc(F)cc2Cl)N=C(c2nccs2)N1` (stereo partly drawn) [Example 146, Methyl (4R)-4-(2-chloro-4-fluoro-phenyl)-6-[[7-(2-ethoxy-2-oxo-ethyl)-7-(methanesulfonamido)-3-oxa-9-azabicyclo[3.3.1]nonan-9-yl]methyl]-2-thiazol-2-yl-1,4-dihydropyrimidine-5-carboxylate], in data set [1], the CC50 at 5 days is greater than 100 µM. For the same molecule, in data set [2], the “Selectivity index (CC50/EC50)” value is greater than 200000. Moreover, the EC50 in data set [3] (setting [4]) was 0.5 nM.

Take `COC(=O)C1=C(CN2[C@@H]3COC[C@H]2CC2(C3)N=N2)NC(c2nccs2)=N[C@H]1c1ccc(F)cc1Cl` [Example 43, (R)-6-(7-Diazirine-3-oxa-9-aza-bicyclo[3.3.1]non-9-ylmethyl)-4-(2-chloro-4-fluoro-phenyl)-2-thiazol-2-yl-1,4-dihydro-pyrimidine-5-carboxylic acid methyl ester]: the midpoint of cytotoxicity in data set [1], the CC50 at 5 days, lay at 43 µM. In addition, the “Selectivity index (CC50/EC50)” value in data set [2] came to 14845. In data set [3] (setting [4]), the EC50 was found to be 3 nM.

Regarding `CCOC(=O)C1=C(CN2[C@@H]3COC[C@H]2C[C@@H](NC(C)=O)C3)NC(c2nccs2)=N[C@H]1c1ccc(F)cc1Br` [Example 70, Ethyl (4R)-6-[[(1S,5R)-7-endo-acetamido-3-oxa-9-azabicyclo[3.3.1]nonan-9-yl]methyl]-4-(2-bromo-4-fluoro-phenyl)-2-thiazol-2-yl-1,4-dihydropyrimidine-5-carboxylate], in data set [1], the CC50 at 5 days is 60 µM. Further, the “Selectivity index (CC50/EC50)” value in data set [2] is on record as 7268. The EC50 in data set [3] (setting [4]) amounted to 8.2 nM.

Consider `CCOC(=O)C(O)C1(O)CC2COCC(C1)N2CC1=C(C(=O)OC)[C@H](c2ccc(F)cc2Cl)N=C(c2nccs2)N1` (stereo partly drawn) [Example 137, Methyl (4R)-4-(2-chloro-4-fluoro-phenyl)-6-[[7-(2-ethoxy-1-hydroxy-2-oxo-ethyl)-7-hydroxy-3-oxa-9-azabicyclo[3.3.1]nonan-9-yl]methyl]-2-thiazol-2-yl-1,4-dihydropyrimidine-5-carboxylate], for which the CC50 at 5 days in data set [1] turned out to be 55 µM. Moreover, in data set [2], the “Selectivity index (CC50/EC50)” value is reported as 17031. Besides, the EC50 in data set [3] (setting [4]) was determined as 3.2 nM.

Consider `COC(=O)C1=C(CN2C3COCC2CN(CC(F)F)C3)NC(c2nccs2)=N[C@H]1c1ccc(F)cc1Cl` [Example 14, (R)-4-(2-Chloro-4-fluoro-phenyl)-6-[7-(2,2-difluoro-ethyl)-3-oxa-7,9-diaza-bicyclo[3.3.1]non-9-ylmethyl]-2-thiazol-2-yl-1,4-dihydro-pyrimidine-5-carboxylic acid methyl ester], for which the CC50 at 5 days in data set [1] is greater than 100 µM. For the same molecule, the “Selectivity index (CC50/EC50)” value in data set [2] is greater than 7692. The EC50 in data set [3] (setting [4]) amounted to 13 nM.

In data set [1], `CCOC(=O)C1=C(CN2[C@@H]3COC[C@H]2C[C@H](NC(C)=O)C3)NC(c2nccs2)=N[C@H]1c1ccc(F)cc1Br` [Example 71, Ethyl (4R)-6-[[(1S,5R)-7-exo-acetamido-3-oxa-9-azabicyclo[3.3.1]nonan-9-yl]methyl]-4-(2-bromo-4-fluoro-phenyl)-2-thiazol-2-yl-1,4-dihydropyrimidine-5-carboxylate] came in with a CC50 at 5 days of 44 µM. Moreover, the “Selectivity index (CC50/EC50)” value in data set [2] came to 14690. Also, in data set [3] (setting [4]), the EC50 was determined as 3 nM.

With `COC(=O)C1=C(CN2C3COCC2c2cnoc2C3)NC(c2nccs2)=N[C@H]1c1ccc(F)cc1Cl` (stereo partly drawn) [Example 105, (4R)-4-(2-Chloro-4-fluoro-phenyl)-6-(5,10-dioxa-4,12-diaza-tricyclo[6.3.1.0*2,6*]dodeca-2(6),3-dien-12-ylmethyl)-2-thiazol-2-yl-1,4-dihydro-pyrimidine-5-carboxylic acid methyl ester], the 50% cytotoxic concentration (CC50) at 5 days in data set [1] came out at 33 µM. In addition, in data set [2], the “Selectivity index (CC50/EC50)” value was found to be 12041. For the same molecule, in data set [3] (setting [4]), the EC50 is 2.7 nM.

Molecule `COC(=O)CC1CC2COCC(C1)N2CC1=C(C(=O)OC)[C@H](c2ccc(F)cc2Cl)N=C(c2nccs2)N1` (stereo partly drawn) [Example 25, (R)-4-(2-Chloro-4-fluoro-phenyl)-6-(7-methoxycarbonylmethyl-3-oxa-9-aza-bicyclo[3.3.1]non-9-ylmethyl)-2-thiazol-2-yl-1,4-dihydro-pyrimidine-5-carboxylic acid methyl ester] came in with a CC50 at 5 days in data set [1] greater than 100 µM. Also, in data set [2], the “Selectivity index (CC50/EC50)” value is greater than 6897. Moreover, the EC50 in data set [3] (setting [4]) was 14.5 nM.

Regarding `COC(=O)C1=C(CN2C3COCC2c2[nH]ncc23)NC(c2nccs2)=N[C@H]1c1ccc(F)cc1Cl` (stereo partly drawn) [Example 45, (R)-4-(2-Chloro-4-fluoro-phenyl)-6-(9-oxa-3,4,11-triaza-tricyclo[5.3.1.0*2,6*]undeca-2(6),4-dien-11-ylmethyl)-2-thiazol-2-yl-1,4-dihydro-pyrimidine-5-carboxylic acid methyl ester], in data set [1], the CC50 at 5 days worked out at 43 µM. In addition, the “Selectivity index (CC50/EC50)” value in data set [2] is 85280. For the same molecule, the EC50 in data set [3] (setting [4]) was 0.5 nM.

In data set [1], `CCOC(=O)CC1(NC(=O)C(F)(F)F)CC2COCC(C1)N2CC1=C(C(=O)OC)[C@H](c2ccc(F)cc2Cl)N=C(c2nccs2)N1` (stereo partly drawn) [Example 147, Methyl (4R)-4-(2-chloro-4-fluoro-phenyl)-6-[[7-(2-ethoxy-2-oxo-ethyl)-7-[(2,2,2-trifluoroacetyl)amino]-3-oxa-9-azabicyclo[3.3.1]nonan-9-yl]methyl]-2-thiazol-2-yl-1,4-dihydropyrimidine-5-carboxylate] gave a CC50 at 5 days greater than 100 µM. Further, the “Selectivity index (CC50/EC50)” value in data set [2] was greater than 111111. In addition, the EC50 in data set [3] (HepG2.2.15) was 0.9 nM.

Regarding `COC(=O)C1=C(CN2C3COCC2C(F)(F)C3)NC(c2nccs2)=N[C@H]1c1ccc(F)cc1Cl` (stereo partly drawn) [Example 108, Methyl (4R)-4-(2-chloro-4-fluorophenyl)-6-[(6,6-difluoro-3-oxa-8-azabicyclo[3.2.1]octan-8-yl)methyl]-2-(1,3-thiazol-2-yl)-1,4-dihydropyrimidine-5-carboxylate], the CC50 at 5 days in data set [1] turned out to be 74 µM. In data set [2], the “Selectivity index (CC50/EC50)” value is listed as 9953. Besides, the EC50 in data set [3] (setting [4]) was found to be 7.4 nM.

Turning to `COC(=O)C1=C(CN2C3COCC2c2conc2C3)NC(c2nccs2)=N[C@H]1c1ccc(F)cc1Cl` (stereo partly drawn) [Example 104, (4R)-4-(2-Chloro-4-fluoro-phenyl)-6-(4,10-dioxa-5,12-diaza-tricyclo[6.3.1.0*2,6*]dodeca-2,5-dien-12-ylmethyl)-2-thiazol-2-yl-1,4-dihydro-pyrimidine-5-carboxylic acid methyl ester], the CC50 at 5 days in data set [1] was determined as 44 µM. Besides, the “Selectivity index (CC50/EC50)” value in data set [2] was found to be 9079. In data set [3] (setting [4]), the EC50 amounted to 4.8 nM.

`COC(=O)C1=C(CN2C3COCC2CC(O)C3)NC(c2nccs2)=N[C@H]1c1ccc(F)cc1Cl` (stereo partly drawn) [Example 7, (R)-4-(2-Chloro-4-fluoro-phenyl)-6-(7-hydroxy-3-oxa-9-aza-bicyclo[3.3.1]non-9-ylmethyl)-2-thiazol-2-yl-1,4-dihydro-pyrimidine-5-carboxylic acid methyl ester] gave a CC50 at 5 days in data set [1] greater than 100 µM. Further, the “Selectivity index (CC50/EC50)” value in data set [2] is greater than 8333. In addition, the EC50 in data set [3] (setting [4]) stood at 12 nM.

Molecule `COC(=O)C1=C(CN2C3COCC2CN(C(=O)OC)C3)NC(c2nccs2)=N[C@H]1c1ccc(F)cc1Cl` [Example 17, 9-[(R)-6-(2-Chloro-4-fluoro-phenyl)-5-methoxycarbonyl-2-thiazol-2-yl-3,6-dihydro-pyrimidin-4-ylmethyl]-3-oxa-7,9-diaza-bicyclo[3.3.1]nonane-7-carboxylic acid methyl ester] gave a CC50 at 5 days in data set [1] of 50 µM. Further, in data set [2], the “Selectivity index (CC50/EC50)” value is on record as 11628. In data set [3] (setting [4]), the EC50 was found to be 4 nM.
